The kinase profiling compilation of Christmann-Franck et al. (2016)

How the values were obtained:
Test in all cases: radiometric filter-binding kinase assay, Kinase HotSpot
Conditions in all cases: compound 0.5 µM; ATP 10 µM
MAP4K2 (human) = MAP4K2 (human) (UniProt Q12851)
CAMKK1 (human) = CAMKK1 (human) (UniProt Q8N5S9)
CDK3 CCNE1 (human) = CDK3 CCNE1 (human) (UniProt Q00526+P24864)
PAK4 (human) = PAK4 (human) (UniProt O96013)
EPHA7 (human) = EPHA7 (human) (UniProt Q15375)
ROCK1 (human) = ROCK1 (human) (UniProt Q13464)
IKBKE (human) = IKBKE (human) (UniProt Q14164)
Sequence of IKBKE (human) (Q14164 whole entry, looked up): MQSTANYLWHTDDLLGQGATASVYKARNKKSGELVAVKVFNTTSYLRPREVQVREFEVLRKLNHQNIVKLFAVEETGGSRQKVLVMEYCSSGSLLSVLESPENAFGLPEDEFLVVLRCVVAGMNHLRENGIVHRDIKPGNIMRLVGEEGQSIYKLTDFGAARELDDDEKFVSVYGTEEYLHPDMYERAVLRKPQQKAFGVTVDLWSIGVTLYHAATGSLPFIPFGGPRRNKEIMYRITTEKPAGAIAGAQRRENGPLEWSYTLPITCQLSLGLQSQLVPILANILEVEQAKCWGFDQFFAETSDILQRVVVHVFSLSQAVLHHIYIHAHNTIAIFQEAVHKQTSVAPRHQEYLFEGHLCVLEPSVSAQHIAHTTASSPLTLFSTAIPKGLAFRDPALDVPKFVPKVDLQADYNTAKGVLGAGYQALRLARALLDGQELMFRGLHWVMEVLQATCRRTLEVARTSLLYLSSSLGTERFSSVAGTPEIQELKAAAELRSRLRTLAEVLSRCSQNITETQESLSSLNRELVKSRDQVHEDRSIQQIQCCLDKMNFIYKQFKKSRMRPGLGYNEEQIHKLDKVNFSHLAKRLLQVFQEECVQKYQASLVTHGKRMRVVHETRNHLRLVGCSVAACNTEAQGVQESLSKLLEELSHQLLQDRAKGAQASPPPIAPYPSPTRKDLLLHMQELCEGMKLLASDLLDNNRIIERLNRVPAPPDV

MAPKAPK2 (human) = MAPKAPK2 (human) (UniProt P49137)
MST1R (human) = MST1R (human) (UniProt Q04912)
NEK2 (human) = NEK2 (human) (UniProt P51955)
PBK (human) = PBK (human) (UniProt Q96KB5)
Sequence of PBK (human) (Q96KB5 whole entry, looked up): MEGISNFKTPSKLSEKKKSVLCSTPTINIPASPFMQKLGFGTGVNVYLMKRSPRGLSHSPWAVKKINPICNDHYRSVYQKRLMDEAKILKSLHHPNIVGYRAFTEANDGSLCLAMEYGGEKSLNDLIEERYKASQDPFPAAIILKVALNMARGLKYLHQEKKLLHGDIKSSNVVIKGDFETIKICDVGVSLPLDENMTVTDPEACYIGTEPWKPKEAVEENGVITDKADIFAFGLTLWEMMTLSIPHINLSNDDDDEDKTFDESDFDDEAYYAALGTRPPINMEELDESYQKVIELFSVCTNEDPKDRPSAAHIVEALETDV

STK17A (human) = STK17A (human) (UniProt Q9UEE5)
FGR (human) = FGR (human) (UniProt P09769)
CSNK1E (human) = CSNK1E (human) (UniProt P49674)
PLK3 (human) = PLK3 (human) (UniProt Q9H4B4)
FYN (human) = FYN (human) (UniProt P06241)
CSNK1A1 (human) = CSNK1A1 (human) (UniProt P48729)
TBK1 (human) = TBK1 (human) (UniProt Q9UHD2)
IGF1R (human) = IGF1R (human) (UniProt P08069)
CLK3 (human) = CLK3 (human) (UniProt P49761)
Sequence of CLK3 (human) (P49761 whole entry, looked up): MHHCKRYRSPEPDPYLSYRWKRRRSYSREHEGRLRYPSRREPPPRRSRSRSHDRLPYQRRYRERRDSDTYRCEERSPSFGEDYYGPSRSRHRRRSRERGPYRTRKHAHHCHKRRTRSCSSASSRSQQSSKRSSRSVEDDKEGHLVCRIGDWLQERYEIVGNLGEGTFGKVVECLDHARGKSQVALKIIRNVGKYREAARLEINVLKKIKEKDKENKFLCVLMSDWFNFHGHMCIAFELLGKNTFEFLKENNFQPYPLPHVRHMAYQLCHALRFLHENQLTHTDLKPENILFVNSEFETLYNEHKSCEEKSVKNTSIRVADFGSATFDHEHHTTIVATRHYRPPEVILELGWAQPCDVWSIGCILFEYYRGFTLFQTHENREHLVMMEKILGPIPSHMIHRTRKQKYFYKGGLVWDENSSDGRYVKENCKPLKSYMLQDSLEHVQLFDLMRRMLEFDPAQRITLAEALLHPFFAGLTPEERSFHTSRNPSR

DYRK1B (human) = DYRK1B (human) (UniProt Q9Y463)
IKBKB (human) = IKBKB (human) (UniProt O14920)
ADRBK1 (human) = ADRBK1 (human) (UniProt P25098)
PKN2 (human) = PKN2 (human) (UniProt Q16513)
ERBB2 (human) = ERBB2 (human) (UniProt P04626)
PRKG2 (human) = PRKG2 (human) (UniProt Q13237)
TYRO3 (human) = TYRO3 (human) (UniProt Q06418)
MAP3K5 (human) = MAP3K5 (human) (UniProt Q99683)
Sequence of MAP3K5 (human) (Q99683 whole entry, looked up): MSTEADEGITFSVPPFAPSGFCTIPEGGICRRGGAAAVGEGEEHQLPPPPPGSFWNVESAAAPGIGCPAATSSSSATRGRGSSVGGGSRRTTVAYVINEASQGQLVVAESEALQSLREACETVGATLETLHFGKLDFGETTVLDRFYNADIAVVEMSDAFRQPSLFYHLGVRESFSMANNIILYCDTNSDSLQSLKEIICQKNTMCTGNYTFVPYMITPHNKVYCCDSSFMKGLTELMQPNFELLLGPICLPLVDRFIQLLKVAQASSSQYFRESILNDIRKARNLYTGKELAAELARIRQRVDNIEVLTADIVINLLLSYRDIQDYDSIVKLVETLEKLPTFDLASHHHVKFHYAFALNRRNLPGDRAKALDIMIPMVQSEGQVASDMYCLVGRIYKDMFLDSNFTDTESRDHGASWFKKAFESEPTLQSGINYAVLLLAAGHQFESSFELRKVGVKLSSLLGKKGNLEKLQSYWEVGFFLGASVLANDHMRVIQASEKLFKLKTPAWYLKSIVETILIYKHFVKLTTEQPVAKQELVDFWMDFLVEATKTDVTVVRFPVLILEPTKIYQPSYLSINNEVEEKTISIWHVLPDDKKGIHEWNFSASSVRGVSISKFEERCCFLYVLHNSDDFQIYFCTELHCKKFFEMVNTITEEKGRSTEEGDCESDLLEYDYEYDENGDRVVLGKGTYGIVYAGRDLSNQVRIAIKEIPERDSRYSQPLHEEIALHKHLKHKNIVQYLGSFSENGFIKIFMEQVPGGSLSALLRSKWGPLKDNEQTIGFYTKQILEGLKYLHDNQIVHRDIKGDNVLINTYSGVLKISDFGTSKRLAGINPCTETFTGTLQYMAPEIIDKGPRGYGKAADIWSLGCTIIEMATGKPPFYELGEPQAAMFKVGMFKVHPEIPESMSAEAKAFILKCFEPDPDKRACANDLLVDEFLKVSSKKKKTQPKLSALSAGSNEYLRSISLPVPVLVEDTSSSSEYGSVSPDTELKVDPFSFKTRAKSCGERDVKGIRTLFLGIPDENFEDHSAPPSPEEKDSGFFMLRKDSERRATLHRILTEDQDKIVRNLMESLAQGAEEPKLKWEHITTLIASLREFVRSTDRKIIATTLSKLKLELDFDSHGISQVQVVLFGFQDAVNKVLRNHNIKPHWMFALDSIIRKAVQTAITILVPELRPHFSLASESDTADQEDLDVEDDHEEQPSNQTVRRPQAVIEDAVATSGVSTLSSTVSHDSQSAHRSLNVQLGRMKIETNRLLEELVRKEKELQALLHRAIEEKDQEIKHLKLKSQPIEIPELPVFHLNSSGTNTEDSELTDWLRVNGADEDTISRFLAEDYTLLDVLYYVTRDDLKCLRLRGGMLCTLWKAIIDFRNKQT

MAP3K11 (human) = MAP3K11 (human) (UniProt Q16584)
EPHA3 (human) = EPHA3 (human) (UniProt P29320)
JAK3 JH1 JH2 (human) = JAK3 JH1 JH2 (human) (UniProt P52333)
RPS6KB1 (human) = RPS6KB1 (human) (UniProt P23443)
MUSK (human) = MUSK (human) (UniProt O15146)
MYLK2 (human) = MYLK2 (human) (UniProt Q9H1R3)
Sequence of MYLK2 (human) (Q9H1R3 whole entry, looked up): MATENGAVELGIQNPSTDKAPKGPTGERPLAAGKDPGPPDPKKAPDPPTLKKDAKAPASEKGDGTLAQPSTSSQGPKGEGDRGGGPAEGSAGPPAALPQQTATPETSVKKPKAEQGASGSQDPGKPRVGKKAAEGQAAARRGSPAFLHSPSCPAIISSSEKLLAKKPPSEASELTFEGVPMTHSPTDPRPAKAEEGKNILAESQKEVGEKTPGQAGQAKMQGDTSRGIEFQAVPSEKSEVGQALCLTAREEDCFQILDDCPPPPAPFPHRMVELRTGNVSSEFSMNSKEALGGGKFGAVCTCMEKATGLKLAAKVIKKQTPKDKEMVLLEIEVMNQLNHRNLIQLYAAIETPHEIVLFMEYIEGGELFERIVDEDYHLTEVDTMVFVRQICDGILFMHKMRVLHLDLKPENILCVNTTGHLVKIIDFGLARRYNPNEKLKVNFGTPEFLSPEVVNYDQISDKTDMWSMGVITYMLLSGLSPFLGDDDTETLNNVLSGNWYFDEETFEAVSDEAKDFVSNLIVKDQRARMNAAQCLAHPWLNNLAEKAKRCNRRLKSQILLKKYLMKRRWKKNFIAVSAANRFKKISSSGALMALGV

EPHB1 (human) = EPHB1 (human) (UniProt P54762)
MLTK (human) = MLTK (human) (UniProt Q9NYL2)
CSNK2A1 (human) = CSNK2A1 (human) (UniProt P68400)
STK33 (human) = STK33 (human) (UniProt Q9BYT3)
Sequence of STK33 (human) (Q9BYT3 whole entry, looked up): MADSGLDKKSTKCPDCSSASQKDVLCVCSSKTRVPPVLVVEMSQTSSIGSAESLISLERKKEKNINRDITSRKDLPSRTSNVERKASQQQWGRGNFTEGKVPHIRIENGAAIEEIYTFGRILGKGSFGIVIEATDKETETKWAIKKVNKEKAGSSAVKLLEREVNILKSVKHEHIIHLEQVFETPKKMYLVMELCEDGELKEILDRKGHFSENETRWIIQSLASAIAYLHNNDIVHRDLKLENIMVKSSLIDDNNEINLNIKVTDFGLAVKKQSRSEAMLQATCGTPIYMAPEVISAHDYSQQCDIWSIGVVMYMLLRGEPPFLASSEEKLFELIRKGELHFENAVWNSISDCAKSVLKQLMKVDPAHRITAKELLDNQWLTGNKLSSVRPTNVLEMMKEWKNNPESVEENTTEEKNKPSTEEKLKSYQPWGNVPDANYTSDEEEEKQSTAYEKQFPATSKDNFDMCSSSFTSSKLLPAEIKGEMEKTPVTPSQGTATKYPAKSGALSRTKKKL

RIPK2 (human) = RIPK2 (human) (UniProt O43353)
PRKCB2 (human) = PRKCB2 (human) (UniProt P05771)
PRKCA (human) = PRKCA (human) (UniProt P17252)
PRKCI (human) = PRKCI (human) (UniProt P41743)

Sequence of MAP4K2 (human) (Q12851 whole entry, looked up): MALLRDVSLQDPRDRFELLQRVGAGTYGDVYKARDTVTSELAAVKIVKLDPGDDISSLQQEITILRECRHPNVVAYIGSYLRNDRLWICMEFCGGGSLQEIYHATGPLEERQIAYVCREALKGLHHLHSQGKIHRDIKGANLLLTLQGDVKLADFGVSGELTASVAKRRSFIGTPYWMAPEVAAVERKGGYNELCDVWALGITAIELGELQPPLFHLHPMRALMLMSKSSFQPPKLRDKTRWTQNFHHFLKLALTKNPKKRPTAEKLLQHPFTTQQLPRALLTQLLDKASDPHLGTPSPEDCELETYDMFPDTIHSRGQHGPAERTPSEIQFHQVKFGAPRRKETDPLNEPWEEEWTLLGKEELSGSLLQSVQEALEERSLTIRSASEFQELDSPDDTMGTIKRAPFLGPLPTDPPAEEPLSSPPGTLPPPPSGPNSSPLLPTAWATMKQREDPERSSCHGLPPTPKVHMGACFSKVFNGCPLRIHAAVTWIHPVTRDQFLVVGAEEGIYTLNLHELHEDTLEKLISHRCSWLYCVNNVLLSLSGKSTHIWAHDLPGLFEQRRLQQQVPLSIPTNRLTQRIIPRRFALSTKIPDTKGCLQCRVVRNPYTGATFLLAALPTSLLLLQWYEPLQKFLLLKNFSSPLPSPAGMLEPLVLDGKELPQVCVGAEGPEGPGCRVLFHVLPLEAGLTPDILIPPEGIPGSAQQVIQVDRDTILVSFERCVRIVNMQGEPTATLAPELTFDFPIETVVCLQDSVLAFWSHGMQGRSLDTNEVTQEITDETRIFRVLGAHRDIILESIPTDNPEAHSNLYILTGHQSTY

For `O=c1cc(-c2cccc3c2Sc2ccccc2S3)oc(N2CCOCC2)c1`, the residual activity (MAP4K2 (human)) was 109%, the residual activity (CAMKK1 (human)) was 112% and the residual activity (CDK3 CCNE1 (human)) was 101%. The residual activity (PAK4 (human)) was 116%, the residual activity (EPHA7 (human)) was 106% and the residual activity (ROCK1 (human)) was 101%. The residual activity (IKBKE (human)) was 96.5%, the residual activity (MAPKAPK2 (human)) was 94.2% and the residual activity (MST1R (human)) was 111%. The residual activity (NEK2 (human)) was 103%, the residual activity (PBK (human)) was 99.4% and the residual activity (STK17A (human)) was 98.2%. It also gave a residual activity (FGR (human)) of 84.9%, a residual activity (CSNK1E (human)) of 104% and a residual activity (PLK3 (human)) of 98.1%. It also gave a residual activity (FYN (human)) of 88.6%, a residual activity (CSNK1A1 (human)) of 94.9% and a residual activity (TBK1 (human)) of 88.5%. For the same compound, the residual activity (IGF1R (human)) was 98.2%, the residual activity (CLK3 (human)) was 121% and the residual activity (DYRK1B (human)) was 101%. For the same compound, the residual activity (IKBKB (human)) was 101%, the residual activity (ADRBK1 (human)) was 79% and the residual activity (PKN2 (human)) was 72.9%. For the same compound, the residual activity (ERBB2 (human)) was 97.3%, the residual activity (PRKG2 (human)) was 92.2% and the residual activity (TYRO3 (human)) was 105%. The residual activity (MAP3K5 (human)) was 104%, the residual activity (MAP3K11 (human)) was 98.6% and the residual activity (EPHA3 (human)) was 119%. For the same compound, the residual activity (JAK3 JH1 JH2 (human)) was 108%, the residual activity (RPS6KB1 (human)) was 91.5% and the residual activity (MUSK (human)) was 89.1%. It also gave a residual activity (MYLK2 (human)) of 97.4%, a residual activity (EPHB1 (human)) of 110% and a residual activity (MLTK (human)) of 100%. For the same compound, the residual activity (CSNK2A1 (human)) was 97.4%, the residual activity (STK33 (human)) was 93.3% and the residual activity (RIPK2 (human)) was 114%. The residual activity (PRKCB2 (human)) was 105%, the residual activity (PRKCA (human)) was 80.3% and the residual activity (PRKCI (human)) was 103%.
